# From patent US20230295234A1, “ANTIMICROBIAL PEPTIDOMIMETICS” (SPEXIS AG, priority 2020, published 2023)
# Bridge positions count the residues as written; N and C are the ends. Square brackets hold non-standard residues; d marks the D form. Peptide text beside a SMILES is read from it. dDab = NCC[C@@H](N)C(=O)O; Dab = NCC[C@H](N)C(=O)O; Nlys = NCCCCNCC(=O)O
# Assays:
# [1] = test system: Escherichia coli MCR-1 Af 45; conditions: MCR-1 Af 45
# Procedure, shortened: (§1)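 Two-fold serial dilutions of peptide, in water with polysorbate 80 (0.002% final), met bacteria adjusted to 0.5 McFarland then diluted to about 5×10^5 CFU/mL. Medium was cation-adjusted Mueller-Hinton II broth; peptide stocks were 1 mg/mL in sterile water.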
# [2] = test system: Klebsiella pneumoniae SSI3010; conditions: SSI3010
# Procedure, shortened: as §1
# [3] = test system: Escherichia coli ATCC 25922; conditions: ATCC 25922
# Procedure, shortened: as §1
# [4] = test system: human red blood cells (hRBC); assay: Hemolysis of human red blood cells; format: cell-based; conditions: red cells of human, 1 h
# Procedure, shortened: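 PBS-washed human red blood cells (20% v/v) were incubated with peptide at 200 μg/mL for 1 h at 37 °C with shaking. Supernatant OD was read at 540 nm after 8-fold dilution. Hemolysis is expressed as percent of the water control.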
Escherichia coli MCR-1 Af 45 MIC [1] [µg/mL],Klebsiella pneumoniae SSI3010 MIC [2] [µg/mL],Escherichia coli ATCC 25922 MIC [3] [µg/mL],SMILES,Hemolysis at 0.2 g/L [4] [%]
0.25,0.25,0.25,"CC[C@H](C)[C@H](NC(=O)[C@@H](NC(=O)[C@@H]1CCCN1C(=O)[C@@H](NC(=O)[C@@H]1CCCN1C(=O)[C@H](CCCCN)NC(=O)[C@@H](N)CCCCN)C(C)C)[C@@H](C)CC)C(=O)N[C@@H](Cc1ccc(O)cc1)C(=O)N[C@H]1CSSC[C@@H](C(=O)N[C@@H](CCN)C(=O)N[C@@H](CCCNC(=N)N)C(=O)N[C@@H](Cc2ccc(O)cc2)C(=O)O)NC(=O)[C@H](CCCCN)NC(=O)[C@@H](CCN)NC(=O)[C@H]([C@@H](C)O)NC(=O)CN(CCN)C(=O)[C@H](CCCNC(=N)N)NC(=O)[C@H](CC(N)=O)NC1=O [Example 107] (HELM PEPTIDE1{K.K.P.V.P.I.I.Y.C.N.R.[NCCN(CC(=O)[*:2])[*:1]].T.[NCC[C@@H](N[*:1])C(=O)[*:2]].K.C.[Dab].R.Y}$PEPTIDE1,PEPTIDE1,9:R3-16:R3$$$V2.0; N-terminus assumed)",0
0.125,0.125,0.125,"CC[C@H](C)[C@H](NC(=O)[C@@H](NC(=O)[C@@H]1CCCN1C(=O)[C@@H](NC(=O)[C@@H]1CCCN1C(=O)[C@H](CCCCN)NC(=O)[C@@H](N)CCCCN)C(C)C)[C@@H](C)CC)C(=O)N[C@@H](Cc1ccc(O)cc1)C(=O)N[C@H]1CSSC[C@@H](C(=O)N[C@@H](CCN)C(=O)N(CCN)CC(=O)N[C@@H](Cc2ccc(O)cc2)C(=O)O)NC(=O)[C@H](CCCCN)NC(=O)[C@@H](CCN)NC(=O)[C@H]([C@@H](C)O)NC(=O)[C@H](CCN)NC(=O)[C@H](CCCNC(=N)N)NC(=O)[C@H](CC(N)=O)NC1=O [Example 110] (HELM PEPTIDE1{K.K.P.V.P.I.I.Y.C.N.R.[Dab].T.[NCC[C@@H](N[*:1])C(=O)[*:2]].K.C.[Dab].[NCCN(CC(=O)[*:2])[*:1]].Y}$PEPTIDE1,PEPTIDE1,9:R3-16:R3$$$V2.0)",0
0.125,0.25,0.25,"CC[C@H](C)[C@H](NC(=O)[C@@H](NC(=O)[C@@H]1CCCN1C(=O)[C@@H](NC(=O)[C@@H]1CCCN1C(=O)[C@H](CCCCN)NC(=O)[C@@H](N)CCCCN)C(C)C)[C@@H](C)CC)C(=O)N[C@@H](Cc1ccc(O)cc1)C(=O)N[C@H]1CSSC[C@@H](C(=O)N[C@@H](CCN)C(=O)N(CCCNC(=N)N)CC(=O)N[C@@H](Cc2ccc(O)cc2)C(=O)O)NC(=O)[C@H](CCCCN)NC(=O)[C@@H](CCN)NC(=O)[C@H]([C@@H](C)O)NC(=O)[C@H](CCN)NC(=O)[C@H](CCCNC(=N)N)NC(=O)[C@H](CC(N)=O)NC1=O [Example 111] (HELM PEPTIDE1{K.K.P.V.P.I.I.Y.C.N.R.[Dab].T.[NCC[C@@H](N[*:1])C(=O)[*:2]].K.C.[Dab].[N=C(N)NCCCN(CC(=O)[*:2])[*:1]].Y}$PEPTIDE1,PEPTIDE1,9:R3-16:R3$$$V2.0; N-terminus assumed)",0
0.0625,0.0625,0.0625,"CC[C@H](C)[C@H](NC(=O)[C@@H](NC(=O)[C@@H]1CCCN1C(=O)[C@@H](NC(=O)[C@@H]1C[C@@H](N)CN1C(=O)[C@H](CCCCN)NC(=O)[C@@H](N)CCCCN)C(C)C)[C@@H](C)CC)C(=O)N[C@@H](Cc1ccc(O)cc1)C(=O)N[C@@H]1C(=O)N[C@@H](CC(N)=O)C(=O)N[C@@H](CCCNC(=N)N)C(=O)N[C@@H](CCN)C(=O)N[C@@H]([C@@H](C)O)C(=O)N[C@H](CCN)C(=O)N[C@@H](CCCCN)C(=O)N[C@H](C(=O)N[C@@H](CCN)C(=O)N[C@@H](CCCNC(=N)N)C(=O)N[C@@H](Cc2ccc(O)cc2)C(=O)O)CSSC1(C)C [Example 114, Lys-Lys-Pro((4R)NH2)-Val-Pro-Ile-Ile-Tyr-Pen-Asn-Arg-^Dab-Thr-^DDab-Lys-Cys-Dab-Arg-Tyr] (HELM PEPTIDE1{K.K.[N[C@@H]1C[C@@H](C(=O)[*:2])N([*:1])C1].V.P.I.I.Y.[Pen].N.R.[Dab].T.[NCC[C@@H](N[*:1])C(=O)[*:2]].K.C.[Dab].R.Y}$PEPTIDE1,PEPTIDE1,9:R3-16:R3$$$V2.0)",0
0.125,0.25,0.0625,"CC[C@H](C)[C@H](NC(=O)[C@@H]1C[C@@H](N)CN1C(=O)[C@@H](NC(=O)[C@@H]1CCCN1C(=O)[C@H](CCCCN)NC(=O)[C@@H](N)CCCCN)C(C)C)C(=O)N[C@@H](CCCNC(=N)N)C(=O)N[C@@H](Cc1ccc(O)cc1)C(=O)N[C@@H]1C(=O)N[C@@H](CC(N)=O)C(=O)N[C@@H](CCCNC(=N)N)C(=O)N[C@@H](CCN)C(=O)N[C@@H]([C@@H](C)O)C(=O)N[C@H](CCN)C(=O)N[C@@H](CCCCN)C(=O)N[C@H](C(=O)N[C@@H](CCN)C(=O)N[C@@H](CCCNC(=N)N)C(=O)N[C@@H](Cc2ccc(O)cc2)C(=O)O)CSSC1(C)C [Example 115, Lys-Lys-Pro-Val-Pro((4R)NH2)-Ile-Arg-Tyr-Pen-Asn-Arg-^Dab-Thr-^DDab-Lys-Cys-Dab-Arg-Tyr] (HELM PEPTIDE1{K.K.P.V.[N[C@@H]1C[C@@H](C(=O)[*:2])N([*:1])C1].I.R.Y.[Pen].N.R.[Dab].T.[NCC[C@@H](N[*:1])C(=O)[*:2]].K.C.[Dab].R.Y}$PEPTIDE1,PEPTIDE1,9:R3-16:R3$$$V2.0)",0

# Further lines, the compound ahead of its results:
SMILES,Escherichia coli MCR-1 Af 45 MIC [1] [µg/mL],Klebsiella pneumoniae SSI3010 MIC [2] [µg/mL],Escherichia coli ATCC 25922 MIC [3] [µg/mL],Hemolysis at 0.2 g/L [4] [%]
"CC[C@H](C)[C@H](NC(=O)[C@@H](NC(=O)[C@@H]1CCCN1C(=O)[C@@H](NC(=O)[C@@H]1CCCN1C(=O)[C@H](CCCCN)NC(=O)[C@@H](N)CCCCN)C(C)C)[C@@H](C)CC)C(=O)N[C@@H](Cc1ccc(O)cc1)C(=O)N[C@H]1CSSC[C@@H](C(=O)N[C@@H](CCN)C(=O)N(CCCN)CC(=O)N[C@@H](Cc2ccc(O)cc2)C(=O)O)NC(=O)[C@H](CCCCN)NC(=O)[C@@H](CCN)NC(=O)[C@H]([C@@H](C)O)NC(=O)[C@H](CCN)NC(=O)[C@H](CCCNC(=N)N)NC(=O)[C@H](CC(N)=O)NC1=O [Example 108] (HELM PEPTIDE1{K.K.P.V.P.I.I.Y.C.N.R.[Dab].T.[NCC[C@@H](N[*:1])C(=O)[*:2]].K.C.[Dab].[NCCCN(CC(=O)[*:2])[*:1]].Y}$PEPTIDE1,PEPTIDE1,9:R3-16:R3$$$V2.0)",≤0.03125,0.0625,0.125,0
"CC[C@H](C)[C@H](NC(=O)[C@@H](NC(=O)[C@@H]1CCCN1C(=O)[C@@H](NC(=O)[C@@H]1CCCN1C(=O)[C@H](CCCCN)NC(=O)[C@@H](N)CCCCN)C(C)C)[C@@H](C)CC)C(=O)N[C@@H](Cc1ccc(O)cc1)C(=O)N[C@H]1CSSC[C@@H](C(=O)N[C@@H](CCN)C(=O)N(CCCCN)CC(=O)N[C@@H](Cc2ccc(O)cc2)C(=O)O)NC(=O)[C@H](CCCCN)NC(=O)[C@@H](CCN)NC(=O)[C@H]([C@@H](C)O)NC(=O)[C@H](CCN)NC(=O)[C@H](CCCNC(=N)N)NC(=O)[C@H](CC(N)=O)NC1=O [Example 109] (HELM PEPTIDE1{K.K.P.V.P.I.I.Y.C.N.R.[Dab].T.[NCC[C@@H](N[*:1])C(=O)[*:2]].K.C.[Dab].[NCCCCN(CC(=O)[*:2])[*:1]].Y}$PEPTIDE1,PEPTIDE1,9:R3-16:R3$$$V2.0)",0.0625,0.125,0.0625,0
CC[C@H](C)[C@H](NC(=O)[C@@H](NC(=O)[C@@H]1CCCN1C(=O)[C@@H](NC(=O)[C@@H]1CCCN1C(=O)[C@H](CCCCN)NC(=O)CNCCCCN)C(C)C)[C@@H](C)CC)C(=O)N[C@@H](Cc1ccc(O)cc1)C(=O)N[C@H]1CSSC[C@@H](C(=O)N[C@@H](CCN)C(=O)N[C@@H](CCCNC(=N)N)C(=O)N[C@@H](Cc2ccc(O)cc2)C(=O)O)NC(=O)[C@H](CCCCN)NC(=O)[C@@H](CCN)NC(=O)[C@H]([C@@H](C)O)NC(=O)CN(CCCCN)C(=O)[C@H](CCCNC(=N)N)NC(=O)[C@H](CC(N)=O)NC1=O [Example 112] (H-[Nlys]KPVPIIYCNR[Nlys]T[dDab]KC[Dab]RY-OH; disulfide 9-16),0.25,0.125,0.25,0
"CC[C@H](C)[C@H](NC(=O)[C@@H](NC(=O)[C@@H]1CCCN1C(=O)[C@@H](NC(=O)[C@@H]1CCCN1C(=O)[C@H](CCCCN)NC(=O)CNCCN)C(C)C)[C@@H](C)CC)C(=O)N[C@@H](Cc1ccc(O)cc1)C(=O)N[C@H]1CSSC(C)(C)[C@@H](C(=O)N[C@@H](CCN)C(=O)N[C@@H](CCCNC(=N)N)C(=O)N[C@@H](Cc2ccc(O)cc2)C(=O)O)NC(=O)[C@H](CCCCN)NC(=O)[C@@H](CCN)NC(=O)[C@H]([C@@H](C)O)NC(=O)[C@H](CCN)NC(=O)[C@H](CCCNC(=N)N)NC(=O)[C@H](CC(N)=O)NC1=O [Example 113] (HELM PEPTIDE1{[NCCNCC(=O)[*:2]].K.P.V.P.I.I.Y.C.N.R.[Dab].T.[NCC[C@@H](N[*:1])C(=O)[*:2]].K.[Pen].[Dab].R.Y}$PEPTIDE1,PEPTIDE1,9:R3-16:R3$$$V2.0)",0.125,0.125,0.0625,0
